Patent publication US20050124562A1, “Bis-quinazoline compounds for the treatment of bacterial infections” (priority 2003, published 2005)
Values after ≈ are worked out from the molar mass of the structure shown. Read-outs that look alike come from different tables or passages of the source.

Legend:
Type in all cases: cell-based
M. catarrhalis = assay: Broth microdilution MIC (NCCLS), M. catarrhalis; details: Moraxella catarrhalis, read-out: MIC range
Protocol: (§1) Representative bis-quinazolines were tested for antibacterial activity using the […] microdilution method to determine their minimum inhibitory concentrations (MICs). All compounds were tested using standard methods in accordance with NCCLS guidelines (National Committee for Clinical Laboratory Standards. 2003. Methods for dilution antimicrobial susceptibility testing for bacteria that grow aerobically. Approved Standard M-7 A-6, NCCLS, Wayne, Pa.). The bacterial strains used in the susceptibility tests were obtained from the American Type Culture Collection (ATCC) and included resistant phenotypes such as oxacillin-resistant S. aureus (ORSA) and vancomycin-resistant enterococci (VRE). The minimum bactericidal concentrations (MBCs) were determined for selected organisms. The effect of protein binding on the antibacterial activity of representative bis-quinazolines were determined by conducting MIC tests in the presence of human serum.

H. influenzae = assay: Broth microdilution MIC (NCCLS), H. influenzae; details: Haemophilus influenzae; some strains of H. influenzae
Protocol: as §1

[1] = tested on: S. aureus, E. faecalis, S. pyogenes and S. pneumoniae; assay: Broth microdilution MIC (NCCLS), gram-positive strains
How it was run: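 MICs by broth microdilution per NCCLS M-7 A-6 against ATCC strains, including ORSA and VRE; MBCs determined for selected organisms. Serum effect assessed by repeating MIC tests with human serum present.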

[2] = tested on: efflux mutants of P. aeruginosa; assay: Broth microdilution MIC (NCCLS), P. aeruginosa efflux mutants; details: Pseudomonas aeruginosa, read-out: MICs
Protocol: as §1

[3] = tested on: efflux mutants of E. coli; assay: Broth microdilution MIC (NCCLS), E. coli efflux mutants; details: Escherichia coli, read-out: MICs
Protocol: as §1

[4] = range against some strains of S. aureus, E. faecalis, S. pyogenes and S. pneumoniae, read-out: MIC

Structure (SMILES) | MIC (M. catarrhalis; some strains of M. catarrhalis) | MIC (H. influenzae) | MIC [1, 4] | MIC [2] | MIC [3] | MIC (M. catarrhalis) | MIC [1]
COc1cc(OC)c2nc(Nc3nc(O)c4cc(OCCN(C)CCO)ccc4n3)nc(C)c2c1.O=C(O)C(F)(F)F [Example 140, 2-(6,8-Dimethoxy-4-methyl-quinazolin-2-ylamino)-6-{2-[(2-hydroxy-ethyl)-methyl-amino]-ethoxy}-quinazolin-4-ol trifluoroacetate salt] | 2 to 64 µg/mL | 16 to 32 µg/mL | 0.06 to 16 µg/mL | 64 µg/mL | 16 to 64 µg/mL |  | 
COc1cc2nc(Nc3nc(O)c4cc(OCCNC(CO)C(C)C)ccc4n3)nc(C)c2cc1OC.O=C(O)C(F)(F)F (stereo not shown) [Example 142, 2-(6,7-Dimethoxy-4-methyl-quinazolin-2-ylamino)-6-[2-(1-hydroxymethyl-2-methyl-propylamino)-ethoxy]-quinazolin-4-ol Trifluoroacetate salt] | 2 to 64 µg/mL | 16 to 32 µg/mL | 0.06 to 16 µg/mL | 64 µg/mL | 16 to 64 µg/mL |  | 
COc1cc(OC)c2nc(Nc3nc(O)c4cc(OCCNC(C)CO)ccc4n3)nc(C)c2c1.O=C(O)C(F)(F)F (stereo not shown) [Example 143, 2-(6,8-Dimethoxy-4-methyl-quinazolin-2-ylamino)-6-[2-(2-hydroxy-1-methyl-ethylamino)-ethoxy]-quinazolin-4-ol trifluoroacetate salt] | 2 to 64 µg/mL | 16 to 32 µg/mL | 0.06 to 16 µg/mL | 64 µg/mL | 16 to 64 µg/mL |  | 
CCN(CC)CCOc1ccc2nc(Nc3nc(C)c4cc(OC)cc(OC)c4n3)nc(O)c2c1.O=C(O)C(F)(F)F [Example 144, 6-(2-Diethylamino-ethoxy)-2-(6,8-dimethoxy-4-methyl-quinazolin-2-ylamino)-quinazolin-4-ol trifluoroacetate salt] | 2 to 64 µg/mL | 16 to 32 µg/mL | 0.06 to 16 µg/mL | 64 µg/mL | 16 to 64 µg/mL |  | 
COc1cc2nc(Nc3nc(O)c4cc(OCCN5CCCCC5)ccc4n3)nc(C)c2cc1OC.O=C(O)C(F)(F)F [Example 145, 2-(6,7-Dimethoxy-4-methyl-quinazolin-2-ylamino)-6-(2-piperidin-1-yl-ethoxy)-quinazolin-4-ol trifluoroacetate salt] | 2 to 64 µg/mL | 16 to 32 µg/mL | 0.06 to 16 µg/mL | 64 µg/mL | 16 to 64 µg/mL |  | 
COc1cc2nc(Nc3nc(O)c4cc(OCCN(C)C)ccc4n3)nc(C)c2cc1OC.O=C(O)C(F)(F)F [Example 146, 2-(6,7-Dimethoxy-4-methyl-quinazolin-2-ylamino)-6-(2-dimethylamino-ethoxy)-quinazolin-4-ol trifluoroacetate salt] | 2 to 64 µg/mL | 16 to 32 µg/mL | 0.06 to 16 µg/mL | 64 µg/mL | 16 to 64 µg/mL |  | 
COc1cc2nc(Nc3nc(O)c4cc(OCCN5CCN(C)CC5)ccc4n3)nc(C)c2cc1OC.O=C(O)C(F)(F)F [Example 147, 2-(6,7-Dimethoxy-4-methyl-quinazolin-2-ylamino)-6-[2-(4-methyl-piperazin-1-yl)-ethoxy]-quinazolin-4-ol trifluoroacetate salt] | 2 to 64 µg/mL | 16 to 32 µg/mL | 0.06 to 16 µg/mL | 64 µg/mL | 16 to 64 µg/mL |  | 
COc1cc2nc(Nc3nc(O)c4cc(OCCN5CCCC5)ccc4n3)nc(C)c2cc1OC.O=C(O)C(F)(F)F [Example 148, 2-(6,7-Dimethoxy-4-methyl-quinazolin-2-ylamino)-6-(2-pyrrolidin-1-yl-ethoxy)-quinazolin-4-ol trifluoroacetate salt] | 2 to 64 µg/mL | 16 to 32 µg/mL | 0.06 to 16 µg/mL | 64 µg/mL | 16 to 64 µg/mL |  | 
CCN(CC)CCOc1ccc2nc(Nc3nc(C)c4cc(OC)c(OC)cc4n3)nc(O)c2c1.O=C(O)C(F)(F)F [Example 149, 6-(2-Diethylamino-ethoxy)-2-(6,7-dimethoxy-4-methyl-quinazolin-2-ylamino)-quinazolin-4-ol trifluoroacetate salt] | 2 to 64 µg/mL | 16 to 32 µg/mL | 0.06 to 16 µg/mL | 64 µg/mL | 16 to 64 µg/mL |  | 
COc1cc2nc(Nc3nc(O)c4cc(OCCCN5CCCC5)ccc4n3)nc(C)c2cc1OC.O=C(O)C(F)(F)F [Example 151, 2-(6,7-Dimethoxy-4-methyl-quinazolin-2-ylamino)-6-(3-pyrrolidin-1-yl-propoxy)-quinazolin-4-ol trifluoroacetate salt] | 2 to 64 µg/mL | 16 to 32 µg/mL | 0.06 to 16 µg/mL | 64 µg/mL | 16 to 64 µg/mL |  | 
COc1cc2nc(Nc3nc(O)c4cc(OCCN5CCC(O)C5)ccc4n3)nc(C)c2cc1OC.O=C(O)C(F)(F)F (stereo not shown) [Example 154, 2-(6,7-Dimethoxy-4-methyl-quinazolin-2-ylamino)-6-[2-(3-hydroxy-pyrrolidin-1-yl)-ethoxy]-quinazolin-4-ol trifluoroacetate salt] | 2 to 64 µg/mL | 16 to 32 µg/mL | 0.06 to 16 µg/mL | 64 µg/mL | 16 to 64 µg/mL |  | 
COc1cc2nc(Nc3nc(O)c4cc(OCCN5CCCC(O)C5)ccc4n3)nc(C)c2cc1OC.O=C(O)C(F)(F)F (stereo not shown) [Example 157, 2-(6,7-Dimethoxy-4-methyl-quinazolin-2-ylamino)-6-[2-(3-hydroxy-piperidin-1-yl)-ethoxy]-quinazolin-4-ol trifluoroacetate salt] | 2 to 64 µg/mL | 16 to 32 µg/mL | 0.06 to 16 µg/mL | 64 µg/mL | 16 to 64 µg/mL |  | 
COc1cc2nc(Nc3nc(O)c4cc(OCCN(CCO)CCO)ccc4n3)nc(C)c2cc1OC.O=C(O)C(F)(F)F [Example 158, 6-{2-[Bis-(2-hydroxy-ethyl)-amino]-ethoxy}-2-(6,7-dimethoxy-4-methyl-quinazolin-2-ylamino)-quinazolin-4-ol trifluoroacetate salt] | 2 to 64 µg/mL | 16 to 32 µg/mL | 0.06 to 16 µg/mL | 64 µg/mL | 16 to 64 µg/mL |  | 
CCN(CCO)CCOc1ccc2nc(Nc3nc(C)c4cc(OC)c(OC)cc4n3)nc(O)c2c1.O=C(O)C(F)(F)F [Example 159, 2-(6,7-Dimethoxy-4-methyl-quinazolin-2-ylamino)-6-{2-[ethyl-(2-hydroxy-ethyl)-amino]-ethoxy}-quinazolin-4-ol trifluoroacetate salt] | 2 to 64 µg/mL | 16 to 32 µg/mL | 0.06 to 16 µg/mL | 64 µg/mL | 16 to 64 µg/mL |  | 
COc1cc(OC)c2nc(Nc3nc(O)c4cc(OCCN5CCC(O)C5)ccc4n3)nc(C)c2c1.O=C(O)C(F)(F)F (stereo not shown) [Example 160, 2-(6,8-Dimethoxy-4-methyl-quinazolin-2-ylamino)-6-[2-(3-hydroxy-pyrrolidin-1-yl)-ethoxy]-quinazolin-4-ol trifluoroacetate salt] | 2 to 64 µg/mL | 16 to 32 µg/mL | 0.06 to 16 µg/mL | 64 µg/mL | 16 to 64 µg/mL |  | 
COc1cc2nc(Nc3nc(O)c4cc(OCCNCCO)ccc4n3)nc(C)c2cc1OC.O=C(O)C(F)(F)F [Example 161, 2-(6,7-Dimethoxy-4-methyl-quinazolin-2-ylamino)-6-[2-(2-hydroxy-ethylamino)-ethoxy]-quinazolin-4-ol trifluoroacetate salt] | 2 to 64 µg/mL | 16 to 32 µg/mL | 0.06 to 16 µg/mL | 64 µg/mL | 16 to 64 µg/mL |  | 
COc1cc2nc(Nc3nc(O)c4cc(OCCN5CCC(N)C5)ccc4n3)nc(C)c2cc1OC (stereo not shown) [Example 163, 6-[2-(3-Amino-pyrrolidin-1-yl)-ethoxy]-2-(6,7-dimethoxy-4-methyl-quinazolin-2-ylamino)-quinazolin-4-ol] |  | 16 to 32 µg/mL (≈ 32.5 to 65.1 µM) |  | 64 µg/mL (≈ 130 µM) | 16 to 64 µg/mL (≈ 32.5 to 130 µM) | 2 to 64 µg/mL (≈ 4.07 to 130 µM) | 0.06 to 16 µg/mL (≈ 0.122 to 32.5 µM)
